Columns and labels:
[1] = Defoaming of foam generated from aqueous 0.2% sodium lauryl sulfate solution in measuring cylinders; assay type: physicochemical; conditions: three minutes after addition of 1 mL aliquot of defoaming agent to 0.2% SLS foam
Experimental: Three aqueous solutions of 0.2% sodium lauryl sulfate were prepared in 250 mL measuring cylinders by diluting 5 g of a 2% sodium lauryl sulfate stock solution with water to give a total volume of 50 mL. The solutions were agitated by swirling the measuring cylinders 12 times to generate foam. The volumes of foam generated were recorded. A 1 mL aliquot of defoaming agent was then added to each of the solutions at a rate of 0.01 mL/s. The defoaming agents investigated were benzyl alcohol, methanol, and water. Three minutes after the addition of the defoaming agent, the volumes of foam present in each vessel were recorded.

[2] = Time taken to defoam (batch to settle) under vacuum during manufacture of oral care composition; conditions: composition B (0.3% benzyl alcohol) versus comparative composition A, 4 kg batch
Experimental: The compositions were manufactured as follows: • 1. The sorbitol was added to an SS vessel having a stirrer. The stirrer was started. The sorbitol was heated to 60-62° C. • 2. Half of the purified water was added to the SS vessel. • 3. The copolymer of methyl vinyl ether and maleic acid was added to the SS vessel and mixed. Mixing was continued until the copolymer of methyl vinyl ether and maleic acid was fully dispersed. • 4. The NaOH (50% solution) was added to the SS vessel and mixed for 5 minutes. • 5. The remaining purified water was added to the SS vessel. • 6. […] The pre-mix was added to the SS vessel. • 7. The resulting gel was mixed for 20 minutes at a temperature of 64-67° C. • 8. The gel was transferred to a mixer. The thickener silica was added to the mixer and mixed for 5 minutes. The mixer used in the present experiment was an Alpro mixer. • 9. The abrasive silica and titanium dioxide were added to the mixer and mixed under vacuum. Mixing was continued until the temperature reached 46° C. • 10. At 46° C., the flavor, triclosan and sodium lauryl sulfate granules were added to the mixture. If used, benzyl alcohol was also added at this stage. • 11. The resulting mixture was then stirred for 2 minutes. Vacuum was then applied. The time taken for the batch to settle was observed. • 12. After allowing the batch to settle, mixing was continued for a further 8 minutes. […]

| Structure (SMILES) | % reduction in foam after addition of defoaming agent [1] | reduction of the defoaming time [2] | reduction of the defoaming time ([2]; listed as benzyl alcohol) |
| --- | --- | --- | --- |
| OCc1ccccc1 [Benzyl alcohol, benzyl alcohol] | 59.1% | 50% | about 50% |
| CO [Methanol, methanol, reference compound] | 74.5% | – | – |
